Laboratory results from patent US20110039314A1, “Composition for Catalytic Amide Production and Uses Thereof” (LOYOLA UNIVERSITY OF CHICAGO, priority 2009, published 2011).

Legend:
[1] = target: Co-type nitrile hydratase from Pseudonocardia thermophile JCM 3095 (PtNHase) (Pseudonocardia thermophila, UniProt Q7SID2+Q7SID3); conditions: previously reported value (ref. 21); cited from earlier work
[2] = target: Fe-type nitrile hydratase from Comamonas testosteroni Ni1 (CtNHase) (Comamonas testosteroni, UniProt J9PBS0+J9PBS1); conditions: previously reported value (ref. 34); cited from earlier work
[3] = substrate: N#Cc1ccccc1; experiment: purified protein, by the assay type; conditions: other: benzonitrile hydrolysis, solution, pH 7.6, 25° C.

Question: For `N#Cc1ccccc1` [benzonitrile], which Km [1] is on record?
Answer: 19 µM

Question: What about the kcat [1] of the same molecule?
Answer: 120 s⁻¹

Question: Which Km [2] does the source give for `N#CCCCCC(=O)O` [cyanovaleric acid] here?
Answer: 3200 µM

B1: Co-type nitrile hydratase from Pseudonocardia thermophile JCM 3095 (PtNHase) (Pseudonocardia thermophila) (protein)
chain 1: MTENILRKSDEEIQKEITARVKALESMLIEQGILTTSMIDRMAEIYENEVGPHLGAKVVVKAWTDPEFKKRLLADGTEACKELGIGGLQGEDMMWVENTDEVHHVVVCTLCSCYPWPVLGLPPNWFKEPQYRSRVVREPRQLLKEEFGFEVPPSKEIKVWDSSSEMRFVVLPQRPAGTDGWSEEELATLVTRESMIGVEPAKAV
chain 2: MNGVYDVGGTDGLGPINRPADEPVFRAEWEKVAFAMFPATFRAGFMGLDEFRFGIEQMNPAEYLESPYYWHWIRTYIHHGVRTGKIDLEELERRTQYYRENPDAPLPEHEQKPELIEFVNQAVYGGLPASREVDRPPKFKEGDVVRFSTASPKGHARRARYVRGKTGTVVKHHGAYIYPDTAGNGLGECPEHLYTVRFTAQELWGPEGDPNSSVYYDCWEPYIELVDTKAAAA
Question: Which Km [3] does the source give for B1 here?
Answer: 18 µM

Question: What about the kcat [3] of the same molecule?
Answer: 123 s⁻¹
